Measurements taken from patent US4029805A, “Semisynthetic penicillins” (Hoffmann-La Roche Inc., priority 1976, dated 1977).
Where two headings read alike, the source gives them in different places.

What was measured:
S. typhosa [1] = test: Curative dose against systemic S. typhosa infection; type: in vivo, mice; conditions: Mus musculus, sc, read-out: CD50 (the source's name)
B. subtilis = test: Stability in aqueous solution at room temperature, microbiological assay using B. subtilis; conditions: in words
Protocol: To illustrate the relative stability of the compounds of this invention in aqueous solution at room temperature the sodium salts of the compounds were tested as 20% by weight aqueous solutions for activity by microbiological assay using B. subtilis as the test organism and compared to 10% and 20% aqueous solutions of amoxicillin sodium salt and 10% aqueous solution of the acetone derivative of amoxicillin.

S. typhosa [2] = test: Curative dose against systemic S. typhosa infection; type: in vivo, mice; conditions: Mus musculus, po
Protocol: (§1) In order to illustrate the relative activity of the compounds of this invention as compared to amoxicillin, the compounds, represented by the acetaldehyde derivative, were tested orally against systemic bacterial infections of mice with the following results. The CD50 is the curative dose in 50% of the animals treated against a challenge organism.

S. schottmuelleri = test: Curative dose against systemic S. schottmuelleri infection; type: in vivo, mice; conditions: Mus musculus
D. pneumoniae = test: Curative dose against systemic D. pneumoniae infection; type: in vivo, mice; conditions: Streptococcus pneumoniae, in Mus musculus, read-out: CD50 (the source's name)
E. coli [3] = test: Curative dose against systemic E. coli infection; type: in vivo, mice; conditions: Escherichia coli, in Mus musculus, read-out: CD50 (the source's name)
E. coli [4] = test: Curative dose against systemic E. coli infection; type: in vivo, mice; conditions: Escherichia coli, in Mus musculus, po
Protocol: as §1

S. pyogenes = test: Curative dose against systemic S. pyogenes infection; type: in vivo, mice; conditions: Streptococcus pyogenes, in Mus musculus, read-out: CD50 (the source's name)
S. aureus = test: Curative dose against systemic S. aureus infection; type: in vivo, mice; conditions: Staphylococcus aureus, in Mus musculus, read-out: CD50 (the source's name)
K. pneumoniae = test: Curative dose against systemic K. pneumoniae infection; type: in vivo, mice; conditions: Klebsiella pneumoniae, in Mus musculus, read-out: CD50 (the source's name)
[5] = Table 3(b), acetaldehyde derivative comparison, read-out: CD50 (the source's name)
[6] = read-out: CD50, Table 2, PO, mice
[7] = po, Table 3(b), po, acetaldehyde derivative comparison
[8] = po, benzaldehyde derivative comparison
[9] = po, butyraldehyde derivative comparison
[10] = po, hexaldehyde derivative comparison
[11] = po, propionaldehyde derivative comparison
[12] = sc, Table 3(b), sc, acetaldehyde derivative comparison
[13] = sc, benzaldehyde derivative comparison
[14] = sc, butyraldehyde derivative comparison
[15] = sc, hexaldehyde derivative comparison
[16] = sc, propionaldehyde derivative comparison

CC1(C)S[C@@H]2[C@H](NC(=O)[C@H](N)c3ccc(O)cc3)C(=O)N2[C@H]1C(=O)O [Amoxicillin, 6[(-)-alpha-amino-para-hydroxyphenylacetamido]-penicillanic acid]
ED50 (S. typhosa [1]; Table 3(b), acetaldehyde derivative comparison): 6.3 mg/kg
ED50 (S. typhosa [1]; benzaldehyde derivative comparison): 0.56 mg/kg
ED50 (S. typhosa [1]; butyraldehyde derivative comparison): 1.3 mg/kg
ED50 (S. typhosa [1]; hexaldehyde derivative comparison): 3.3 mg/kg
ED50 (S. typhosa [1]; propionaldehyde derivative comparison): 2.8 mg/kg
stability in solution (B. subtilis): very short stability in parenteral solutions
ED50 (S. typhosa [2]; [5]): 5 mg/kg
ED50 (S. typhosa [2]; benzaldehyde derivative comparison, read-out: CD50 (the source's name)): 1.3 mg/kg
ED50 (S. typhosa [2]; butyraldehyde derivative comparison, read-out: CD50 (the source's name)): 3.3 mg/kg
ED50 (S. typhosa [2]; hexaldehyde derivative comparison, read-out: CD50 (the source's name)): 3.7 mg/kg
ED50 (S. typhosa [2]; propionaldehyde derivative comparison, read-out: CD50 (the source's name)): 3.8 mg/kg
ED50 (S. typhosa [2]; [6]): 5.4 mg/kg
ED50 (S. schottmuelleri; po, Table 3(b), po, acetaldehyde derivative comparison, read-out: CD50 (the source's name)): 5.3 mg/kg
ED50 (S. schottmuelleri; po, benzaldehyde derivative comparison, read-out: CD50 (the source's name)): 5.5 mg/kg
ED50 (S. schottmuelleri; po, butyraldehyde derivative comparison, read-out: CD50 (the source's name)): 5.9 mg/kg
ED50 (S. schottmuelleri; po, hexaldehyde derivative comparison, read-out: CD50 (the source's name)): 4.4 mg/kg
ED50 (S. schottmuelleri; po, propionaldehyde derivative comparison, read-out: CD50 (the source's name)): 5.7 mg/kg
ED50 (S. schottmuelleri; po, read-out: CD50, Table 2, PO, mice): 5.3 mg/kg
ED50 (S. schottmuelleri; sc, Table 3(b), sc, acetaldehyde derivative comparison, read-out: CD50 (the source's name)): 6.5 mg/kg
ED50 (S. schottmuelleri; sc, benzaldehyde derivative comparison, read-out: CD50 (the source's name)): 6.7 mg/kg
ED50 (S. schottmuelleri; sc, butyraldehyde derivative comparison, read-out: CD50 (the source's name)): 2.3 mg/kg
ED50 (S. schottmuelleri; sc, hexaldehyde derivative comparison, read-out: CD50 (the source's name)): 1 mg/kg
ED50 (S. schottmuelleri; sc, propionaldehyde derivative comparison, read-out: CD50 (the source's name)): 6.1 mg/kg
ED50 (D. pneumoniae; po, Table 2, PO, mice): 10 mg/kg
ED50 (D. pneumoniae; [7]): 10 mg/kg
ED50 (D. pneumoniae; [8]): < 0.2 mg/kg
ED50 (D. pneumoniae; [9]): 2.7 mg/kg
ED50 (D. pneumoniae; [10]): 0.75 mg/kg
ED50 (D. pneumoniae; [11]): 1.1 mg/kg
ED50 (D. pneumoniae; [12]): 0.53 mg/kg
ED50 (D. pneumoniae; [13]): 0.14 mg/kg
ED50 (D. pneumoniae; [14]): 3.2 mg/kg
ED50 (D. pneumoniae; [15]): 0.07 mg/kg
ED50 (D. pneumoniae; [16]): 0.19 mg/kg
ED50 (E. coli [3]; [8]): 16 mg/kg
ED50 (E. coli [3]; [9]): 15 mg/kg
ED50 (E. coli [3]; [10]): 10 mg/kg
ED50 (E. coli [3]; [11]): 11 mg/kg
ED50 (E. coli [3]; [12]): 10 mg/kg
ED50 (E. coli [3]; [13]): 5.9 mg/kg
ED50 (E. coli [3]; [14]): 6 mg/kg
ED50 (E. coli [3]; [15]): 2.5 mg/kg
ED50 (E. coli [3]; [16]): 3.4 mg/kg
LD50 (in vivo; ip): 3460 mg/kg
LD50 (in vivo; po): > 10000 mg/kg
LD50 (in vivo; sc): 10000 mg/kg
ED50 (E. coli [4]; [5]): 6.4 mg/kg
ED50 (E. coli [4]; [6]): 6.4 mg/kg
ED50 (S. pyogenes; po, Table 2, PO, mice): 1.5 mg/kg
ED50 (S. pyogenes; [7]): 1.5 mg/kg
ED50 (S. pyogenes; [8]): 0.82 mg/kg
ED50 (S. pyogenes; [9]): 0.08 mg/kg
ED50 (S. pyogenes; [10]): 0.3 mg/kg
ED50 (S. pyogenes; [11]): 0.16 mg/kg
ED50 (S. pyogenes; [12]): < 0.05 mg/kg
ED50 (S. pyogenes; [13]): 0.31 mg/kg
ED50 (S. pyogenes; [14]): < 0.01 mg/kg
ED50 (S. pyogenes; [15]): 0.11 mg/kg
ED50 (S. pyogenes; [16]): 0.07 mg/kg
ED50 (S. aureus; po, Table 2, PO, mice): 1.2 mg/kg
ED50 (S. aureus; [7]): 1.2 mg/kg
ED50 (S. aureus; [8]): 4 mg/kg
ED50 (S. aureus; [9]): 0.29 mg/kg
ED50 (S. aureus; [10]): 0.72 mg/kg
ED50 (S. aureus; [11]): 0.41 mg/kg
ED50 (S. aureus; [12]): 2 mg/kg
ED50 (S. aureus; [13]): 0.16 mg/kg
ED50 (S. aureus; [14]): 0.5 mg/kg
ED50 (S. aureus; [15]): 0.79 mg/kg
ED50 (S. aureus; [16]): 0.47 mg/kg
ED50 (K. pneumoniae; po, Table 2, PO, mice): 10 mg/kg
ED50 (K. pneumoniae; [7]): 10 mg/kg
ED50 (K. pneumoniae; [8]): 75 mg/kg
ED50 (K. pneumoniae; [9]): 58 mg/kg
ED50 (K. pneumoniae; [10]): 59 mg/kg
ED50 (K. pneumoniae; [11]): 16 mg/kg
ED50 (K. pneumoniae; [12]): 12 mg/kg
ED50 (K. pneumoniae; [13]): 100 mg/kg
ED50 (K. pneumoniae; [14]): 22 mg/kg
ED50 (K. pneumoniae; [15]): 48 mg/kg
ED50 (K. pneumoniae; [16]): 17 mg/kg
